Laboratory results taken from PubChem BioAssay (NCI).
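Where inhibition never reached the appropriate level, the endpoint shown equals the highest concentration tested. Otherwise, values were interpolated linearly from a five-concentration, 48-hour dose response in 96-well plates. GI50 = concentration required for 50% inhibition of growth. Definition used: TGI = concentration required for complete inhibition of growth.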

Tests used:
Assay in all cases: NCI anticancer screen, dose series, 48 h
NCI-H226 lung = system: NCI-H226 lung
MDA-MB-435 = system: MDA-MB-435
HCT-116 colon = system: HCT-116 colon
DU-145 prostate = system: DU-145 prostate
SF-539 CNS = system: SF-539 CNS
UO-31 renal = system: UO-31 renal
UACC-62 melanoma = system: UACC-62 melanoma
BT-549 breast = system: BT-549 breast
RXF 393 renal = system: RXF 393 renal
NCI-H23 lung = system: NCI-H23 lung
UACC-257 melanoma = system: UACC-257 melanoma
OVCAR-4 ovarian = system: OVCAR-4 ovarian
CAKI-1 renal = system: CAKI-1 renal
M14 melanoma = system: M14 melanoma
SF-295 CNS = system: SF-295 CNS
NCI-H522 lung = system: NCI-H522 lung
HOP-92 NSCLC = system: HOP-92 NSCLC
SK-OV-3 ovarian = system: SK-OV-3 ovarian
HS 578T breast = system: HS 578T breast
TK-10 renal = system: TK-10 renal
NCI/ADR-RES ovarian = system: NCI/ADR-RES ovarian
SK-MEL-28 melanoma = system: SK-MEL-28 melanoma
SR leukemia = system: SR leukemia
RPMI-8226 leukemia = system: RPMI-8226 leukemia
MDA-MB-231 breast = system: MDA-MB-231 breast
HOP-62 NSCLC = system: HOP-62 NSCLC
A549 NSCLC = system: A549 NSCLC
EKVX NSCLC = system: EKVX NSCLC
SNB-75 CNS = system: SNB-75 CNS
HCC-2998 colon = system: HCC-2998 colon
COLO 205 colon = system: COLO 205 colon
MCF7 breast = system: MCF7 breast
SW-620 colon = system: SW-620 colon
MALME-3M melanoma = system: MALME-3M melanoma
HL-60(TB) leukemia = system: HL-60(TB) leukemia
NCI-H460 lung = system: NCI-H460 lung
PC-3 prostate = system: PC-3 prostate
ACHN renal = system: ACHN renal
MOLT-4 leukemia = system: MOLT-4 leukemia
SN12C renal = system: SN12C renal
SNB-19 CNS = system: SNB-19 CNS
U251 CNS = system: U251 CNS
HT29 colon = system: HT29 colon
SK-MEL-5 melanoma = system: SK-MEL-5 melanoma
786-0 renal = system: 786-0 renal
SF-268 CNS = system: SF-268 CNS
SK-MEL-2 melanoma = system: SK-MEL-2 melanoma
HCT-15 colon = system: HCT-15 colon
IGROV1 ovarian = system: IGROV1 ovarian
T-47D breast = system: T-47D breast
K-562 leukemia = system: K-562 leukemia
MDA-MB-468 breast = system: MDA-MB-468 breast
KM12 colon = system: KM12 colon
CCRF-CEM leukemia = system: CCRF-CEM leukemia
OVCAR-3 ovarian = system: OVCAR-3 ovarian
LOX IMVI melanoma = system: LOX IMVI melanoma
OVCAR-5 ovarian = system: OVCAR-5 ovarian
A498 renal = system: A498 renal
OVCAR-8 ovarian = system: OVCAR-8 ovarian

C=CC(=O)Nc1nc(-c2cccc(NS(=O)(=O)c3cccc4c(N(C)C)cccc34)c2)cs1
GI50 (NCI-H226 lung): 10.9 µM
TGI (NCI-H226 lung): 25.8 µM
GI50 (MDA-MB-435): 3.02 µM
TGI (MDA-MB-435): 13.9 µM
GI50 (HCT-116 colon): 2380 nM
TGI (HCT-116 colon): 10.5 µM
GI50 (DU-145 prostate): 5.4 µM
TGI (DU-145 prostate): 15.2 µM
GI50 (SF-539 CNS): 1790 nM
TGI (SF-539 CNS): 6.03 µM
GI50 (UO-31 renal): 5.43 µM
TGI (UO-31 renal): 15.1 µM
GI50 (UACC-62 melanoma): 3.74 µM
TGI (UACC-62 melanoma): 13.1 µM
GI50 (BT-549 breast): 2720 nM
TGI (BT-549 breast): 9.07 µM
GI50 (RXF 393 renal): 2740 nM
TGI (RXF 393 renal): 11.7 µM
GI50 (NCI-H23 lung): 10.4 µM
TGI (NCI-H23 lung): 20.8 µM
GI50 (UACC-257 melanoma): 9.31 µM
TGI (UACC-257 melanoma): 19.4 µM
GI50 (OVCAR-4 ovarian): 8.29 µM
TGI (OVCAR-4 ovarian): 17.8 µM
GI50 (CAKI-1 renal): 3.74 µM
TGI (CAKI-1 renal): 13.2 µM
GI50 (M14 melanoma): 4.34 µM
TGI (M14 melanoma): 16 µM
GI50 (SF-295 CNS): 9.01 µM
TGI (SF-295 CNS): 18.8 µM
GI50 (NCI-H522 lung): 2750 nM
TGI (NCI-H522 lung): 11.9 µM
GI50 (HOP-92 NSCLC): 6.16 µM
TGI (HOP-92 NSCLC): 16.4 µM
GI50 (SK-OV-3 ovarian): 14 µM
TGI (SK-OV-3 ovarian): 25.9 µM
GI50 (HS 578T breast): 4.06 µM
TGI (HS 578T breast): 26.7 µM
GI50 (TK-10 renal): 3.07 µM
TGI (TK-10 renal): 10.6 µM
GI50 (NCI/ADR-RES ovarian): 3.78 µM
TGI (NCI/ADR-RES ovarian): 18.3 µM
GI50 (SK-MEL-28 melanoma): 5.99 µM
TGI (SK-MEL-28 melanoma): 15.3 µM
GI50 (SR leukemia): 2000 nM
TGI (SR leukemia): 20.3 µM
GI50 (RPMI-8226 leukemia): 2100 nM
TGI (RPMI-8226 leukemia): 11.3 µM
GI50 (MDA-MB-231 breast): 3.75 µM
TGI (MDA-MB-231 breast): 13.2 µM
GI50 (HOP-62 NSCLC): 11.4 µM
TGI (HOP-62 NSCLC): 22.2 µM
GI50 (A549 NSCLC): 9.27 µM
TGI (A549 NSCLC): 21.7 µM
GI50 (EKVX NSCLC): 10.5 µM
TGI (EKVX NSCLC): 20.5 µM
GI50 (SNB-75 CNS): 1860 nM
TGI (SNB-75 CNS): 10.1 µM
GI50 (HCC-2998 colon): 9.22 µM
TGI (HCC-2998 colon): 18.7 µM
GI50 (COLO 205 colon): 9.08 µM
TGI (COLO 205 colon): 25.3 µM
GI50 (MCF7 breast): 2710 nM
TGI (MCF7 breast): 11.2 µM
GI50 (SW-620 colon): 2490 nM
TGI (SW-620 colon): 10.2 µM
GI50 (MALME-3M melanoma): 8.53 µM
TGI (MALME-3M melanoma): 17.6 µM
GI50 (HL-60(TB) leukemia): 2620 nM
TGI (HL-60(TB) leukemia): 14.7 µM
GI50 (NCI-H460 lung): 7.81 µM
TGI (NCI-H460 lung): 18.7 µM
GI50 (PC-3 prostate): 4.7 µM
TGI (PC-3 prostate): 19.7 µM
GI50 (ACHN renal): 3.87 µM
TGI (ACHN renal): 13.3 µM
GI50 (MOLT-4 leukemia): 2420 nM
TGI (MOLT-4 leukemia): 12.5 µM
GI50 (SN12C renal): 4.56 µM
TGI (SN12C renal): 14.5 µM
GI50 (SNB-19 CNS): 10.2 µM
TGI (SNB-19 CNS): 19.8 µM
GI50 (U251 CNS): 9.04 µM
TGI (U251 CNS): 18.9 µM
GI50 (HT29 colon): 2960 nM
TGI (HT29 colon): 12.2 µM
GI50 (SK-MEL-5 melanoma): 6.19 µM
TGI (SK-MEL-5 melanoma): 15.8 µM
GI50 (786-0 renal): 2600 nM
TGI (786-0 renal): 11.7 µM
GI50 (SF-268 CNS): 5.92 µM
TGI (SF-268 CNS): 18.2 µM
GI50 (SK-MEL-2 melanoma): 9.35 µM
TGI (SK-MEL-2 melanoma): 19.3 µM
GI50 (HCT-15 colon): 2770 nM
TGI (HCT-15 colon): 11 µM
GI50 (IGROV1 ovarian): 7.67 µM
TGI (IGROV1 ovarian): 16.4 µM
GI50 (T-47D breast): 4.64 µM
TGI (T-47D breast): 17.7 µM
GI50 (K-562 leukemia): 3.15 µM
TGI (K-562 leukemia): 74.8 µM
GI50 (MDA-MB-468 breast): 1960 nM
TGI (MDA-MB-468 breast): 6.71 µM
GI50 (KM12 colon): 6.28 µM
TGI (KM12 colon): 18 µM
GI50 (CCRF-CEM leukemia): 1690 nM
TGI (CCRF-CEM leukemia): 5.33 µM
GI50 (OVCAR-3 ovarian): 2100 nM
TGI (OVCAR-3 ovarian): 10.5 µM
GI50 (LOX IMVI melanoma): 1610 nM
TGI (LOX IMVI melanoma): 4.24 µM
GI50 (OVCAR-5 ovarian): 9.28 µM
TGI (OVCAR-5 ovarian): 18.6 µM
GI50 (A498 renal): 8.83 µM
TGI (A498 renal): 18.1 µM
GI50 (OVCAR-8 ovarian): 7.94 µM
TGI (OVCAR-8 ovarian): 22.5 µM
